Our source for the GI50 and TGI values is PubChem BioAssay (NCI).

SMILES strings stand for the structures. Several values for one entry are separate records, joined by “and”; a condition that tells them apart may be missing. Identical values can stand only once.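 Method: 48-hour compound exposure of cells in 96-well plates, five concentrations, linear interpolation of endpoints. At the GI50, growth is halved. TGI: concentration producing complete growth inhibition.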

Among the test systems are 786-0 renal; HCC-2998 colon; HS 578T breast; LOX IMVI melanoma; NCI-H460 lung; SNB-19 CNS; SR leukemia; SW-620 colon; U251 CNS; UACC-62 melanoma.
Holding throughout (assay): NCI anticancer screen, dose series, 48 h

Consider `CC(C)NCCCCCNc1cc(O)cc2cccnc12`, for which the GI50 is over 100 µM in the assay with 786-0 renal; over 44.2 µM in the assay on HCC-2998 colon; over 42.5 µM with HS 578T breast; over 100 µM in the assay with LOX IMVI melanoma; over 100 µM in the assay on NCI-H460 lung; over 100 µM in the assay on SNB-19 CNS. Moreover, the GI50 with SR leukemia, in the assay with SW-620 colon, in the assay on U251 CNS and with UACC-62 melanoma was over 100 µM throughout. Also, the TGI in the assay on 786-0 renal, in the assay on HCC-2998 colon, with HS 578T breast, in the assay with LOX IMVI melanoma, in the assay on NCI-H460 lung and in the assay with SNB-19 CNS was over 100 µM in each case. For the same compound, the TGI in the assay with SR leukemia, in the assay with SW-620 colon, in the assay on U251 CNS and in the assay with UACC-62 melanoma was over 100 µM throughout.
Regarding `CS(=O)(=O)c1ccc(-c2[nH]c3ccc(F)cc3c2/C=N/NC(N)=S)cc1`, the GI50 was 0.605 µM with 786-0 renal; 2.95 µM in the assay with HCC-2998 colon; 0.293 µM in the assay on HS 578T breast; 0.84 µM in the assay with LOX IMVI melanoma; 2.28 µM in the assay on NCI-H460 lung; 1.31 µM with SNB-19 CNS. In addition, the GI50 in the assay on SR leukemia is 0.329 µM; with SW-620 colon it was 0.575 µM; in the assay on U251 CNS, 0.777 µM; in the assay with UACC-62 melanoma, 0.531 µM. In addition, the TGI in the assay on 786-0 renal is over 100 µM; in the assay on HCC-2998 colon, 14.7 µM; with HS 578T breast, 7.74 µM; with LOX IMVI melanoma it was over 100 µM; with NCI-H460 lung, over 100 µM; with SNB-19 CNS, over 100 µM. Moreover, the TGI is 32.8 µM in the assay on SR leukemia, over 100 µM with SW-620 colon, over 100 µM in the assay on U251 CNS and over 100 µM in the assay with UACC-62 melanoma.
Take `Cc1cccc2c1ccc1c3occ(C)c3c(=O)oc21`: the GI50 was over 100 µM in the assay on 786-0 renal; over 100 µM with HCC-2998 colon; over 100 µM in the assay on HS 578T breast; 80.3 µM in the assay on LOX IMVI melanoma; 93.1 µM in the assay on NCI-H460 lung; over 100 µM with SNB-19 CNS. The GI50 with SR leukemia, in the assay on SW-620 colon, in the assay on U251 CNS and with UACC-62 melanoma was over 100 µM in each case. The TGI in the assay on 786-0 renal, in the assay on HCC-2998 colon, with HS 578T breast, with LOX IMVI melanoma, with NCI-H460 lung and with SNB-19 CNS was over 100 µM in each case. For the same compound, the TGI in the assay with SR leukemia, with SW-620 colon, in the assay with U251 CNS and with UACC-62 melanoma was over 100 µM each time.
For `CCCC(=O)Nc1ncnc2c1ncn2C1OC2COP(=O)(O)OC2C1OC(=O)CCC` (stereo unspecified), the GI50 in the assay on 786-0 renal, with HCC-2998 colon, in the assay on LOX IMVI melanoma, with SNB-19 CNS, in the assay on SW-620 colon and with U251 CNS was over 1000 µM in each case. Further, the GI50 with UACC-62 melanoma was over 1000 µM. Moreover, the TGI in the assay on 786-0 renal, in the assay with HCC-2998 colon, in the assay on HS 578T breast, in the assay with LOX IMVI melanoma, in the assay on SNB-19 CNS and with SR leukemia was over 1000 µM throughout. Further, the TGI in the assay on SW-620 colon, in the assay with U251 CNS and in the assay on UACC-62 melanoma was over 1000 µM throughout.
`O=c1cc(-c2ccccc2)nc2cc(-c3ccco3)[nH]n12`: the GI50 was 31 µM with 786-0 renal; 13.3 µM with HCC-2998 colon; 7.1 µM in the assay on HS 578T breast; 15.2 µM in the assay with LOX IMVI melanoma; 4.49 µM with NCI-H460 lung; 12.6 µM with SNB-19 CNS. The GI50 with SR leukemia was 3.14 µM; with SW-620 colon it was 4.51 µM; in the assay on U251 CNS, 4.74 µM; in the assay with UACC-62 melanoma it was 5.66 µM. Moreover, the TGI with 786-0 renal is over 100 µM; in the assay with HCC-2998 colon it was over 100 µM; with HS 578T breast, 37.3 µM; in the assay with LOX IMVI melanoma, over 100 µM; in the assay with NCI-H460 lung, 20.6 µM; with SNB-19 CNS it was over 100 µM. Further, the TGI is 82.5 µM in the assay with SR leukemia, over 100 µM with SW-620 colon, over 100 µM in the assay with U251 CNS and over 100 µM in the assay with UACC-62 melanoma.
For `O=[N+]([O-])c1ccc(NN=C2c3ccccc3Cc3ccccc32)c([N+](=O)[O-])c1`, the TGI is over 100 µM with 786-0 renal; over 100 µM in the assay with HCC-2998 colon; over 80.4 µM in the assay with HS 578T breast; over 100 µM in the assay with LOX IMVI melanoma; over 100 µM with NCI-H460 lung; over 100 µM in the assay on SNB-19 CNS. In addition, the TGI with SR leukemia is 11.5 µM; in the assay on SW-620 colon, over 100 µM; in the assay on U251 CNS, over 100 µM; in the assay on UACC-62 melanoma, over 100 µM.
On to `O=C(Nc1ccc(Cl)cc1F)c1cc(Cl)ccc1O`, for which the GI50 in the assay on 786-0 renal is 1.09 µM; in the assay on HCC-2998 colon, 2.23 µM; in the assay on HS 578T breast it was 0.341 µM; in the assay on NCI-H460 lung, 0.44 µM; with SNB-19 CNS, 0.413 µM; in the assay on SR leukemia, 2.2 µM. Moreover, the GI50 is 0.7 µM in the assay with SW-620 colon, 0.466 µM in the assay with U251 CNS and 0.279 µM with UACC-62 melanoma. Also, the TGI is 7.03 µM in the assay with 786-0 renal; 8.77 µM in the assay on HCC-2998 colon; 3.65 µM in the assay with HS 578T breast; over 100 µM in the assay on SNB-19 CNS; over 49.3 µM in the assay on SR leukemia; over 22.5 µM in the assay with SW-620 colon. Moreover, the TGI is over 100 µM in the assay with U251 CNS and 1.11 µM in the assay on UACC-62 melanoma.
Turning to `CCNC(=O)c1ccc2c(c1)nc(-c1ccc(Cl)cc1)n2-c1cc(C(C)(C)C)[nH]n1`, the GI50 in the assay with 786-0 renal was 3.48 µM; in the assay on HCC-2998 colon, 3.96 µM; in the assay with HS 578T breast it was 2.58 µM; in the assay with LOX IMVI melanoma, 3.54 µM; in the assay on NCI-H460 lung it was 3.53 µM; in the assay with SNB-19 CNS, 3.97 µM. Moreover, the GI50 in the assay on SR leukemia is 1.06 µM; in the assay with U251 CNS, 3.28 µM; in the assay on UACC-62 melanoma, 2.05 µM. For the same compound, the TGI in the assay on 786-0 renal is 47.4 µM; in the assay on HCC-2998 colon it was 26.7 µM; with HS 578T breast, 7.6 µM; with LOX IMVI melanoma, 14.4 µM; with NCI-H460 lung it was 12.5 µM; in the assay on SNB-19 CNS it was over 100 µM. Further, the TGI stood at 9.32 µM in the assay with SR leukemia, 12.2 µM in the assay with U251 CNS and 7.61 µM with UACC-62 melanoma.
For `Cc1cc2c(=O)c3ccccc3oc2c(C#N)c1C`, the TGI with 786-0 renal, with HCC-2998 colon, in the assay with HS 578T breast, with NCI-H460 lung, in the assay with SNB-19 CNS and in the assay with SR leukemia was over 100 µM each time. In addition, the TGI in the assay on SW-620 colon and with U251 CNS was over 100 µM throughout.
`CC(=O)Nc1ccc(S(=O)(=O)c2ccc(NC(C)=O)cc2)cc1`: the GI50 in the assay with 786-0 renal, with HCC-2998 colon, in the assay on HS 578T breast, with LOX IMVI melanoma, in the assay with NCI-H460 lung and in the assay with SR leukemia was over 100 µM throughout. Besides, the GI50 in the assay with SW-620 colon and in the assay with UACC-62 melanoma was over 100 µM throughout. The TGI in the assay on 786-0 renal, with HCC-2998 colon, in the assay on HS 578T breast, in the assay on LOX IMVI melanoma, in the assay with NCI-H460 lung and in the assay on SR leukemia was over 100 µM in each case. Moreover, the TGI with SW-620 colon and in the assay on UACC-62 melanoma was over 100 µM each time.
Regarding `O=C1CCCC(=O)C1C(=O)c1ccc(C(F)(F)F)cc1[N+](=O)[O-]`, the GI50 in the assay with 786-0 renal, in the assay with HCC-2998 colon, in the assay on HS 578T breast, in the assay on NCI-H460 lung, in the assay on SNB-19 CNS and with SR leukemia was over 100 µM each time. Also, the GI50 in the assay on SW-620 colon, in the assay with U251 CNS and with UACC-62 melanoma was over 100 µM each time. In addition, the TGI with 786-0 renal, in the assay on HCC-2998 colon, in the assay with HS 578T breast, in the assay on NCI-H460 lung, with SNB-19 CNS and with SR leukemia was over 100 µM in each case. Besides, the TGI in the assay on SW-620 colon, in the assay on U251 CNS and with UACC-62 melanoma was over 100 µM throughout.
Turning to `C/C=C1\C[C@@H]2C(OC)Nc3cc(O)c(OC)cc3C(=O)N2C1` (stereo partly specified), the GI50 is 0.00529 µM in the assay on 786-0 renal; under 0.0178 µM in the assay on HCC-2998 colon; 0.0035 µM with LOX IMVI melanoma; 0.00356 µM in the assay on NCI-H460 lung; 0.00703 µM in the assay with SW-620 colon; 0.00353 µM in the assay on U251 CNS. In addition, in the assay on UACC-62 melanoma, the GI50 is 0.00284 µM. In addition, the TGI was 0.0358 µM and 0.023 µM in the assay with HCC-2998 colon; 0.0575 µM and < 0.0282 µM in the assay on HS 578T breast; 0.0825 µM with LOX IMVI melanoma; 0.598 µM and 1.53 µM in the assay on NCI-H460 lung; 0.0602 µM in the assay on SR leukemia; 36.8 µM in the assay with SW-620 colon. The figures for the TGI with U251 CNS and in the assay on UACC-62 melanoma were 10.1 µM and 0.00948 µM, respectively.
As to `CC(=O)OC1CC(C)c2c(Cl)ncnc21` (stereo unspecified), the GI50 with 786-0 renal, in the assay on HCC-2998 colon, in the assay on HS 578T breast, in the assay with LOX IMVI melanoma, in the assay with NCI-H460 lung and in the assay with SNB-19 CNS was over 100 µM throughout. The values for the GI50 with SR leukemia, in the assay on SW-620 colon and in the assay with UACC-62 melanoma were 78.2 µM, over 100 µM and over 100 µM, respectively. For the same compound, the TGI with 786-0 renal, in the assay with HCC-2998 colon, in the assay on HS 578T breast, with LOX IMVI melanoma, in the assay on NCI-H460 lung and in the assay on SNB-19 CNS was over 100 µM throughout. The TGI in the assay with SR leukemia, with SW-620 colon and with UACC-62 melanoma was over 100 µM each time.
